From patent publication US20090018162A1, “USE OF 6-(3-CHLORO-2-FLUOROBENZYL)-1-[(2S)-1-HYDROXY-3-METHYLBUTAN-2-YL]-7-METHOXY-4-OXO-1,4-DIHYDROQUINOLINE-3-CARBOXYLIC ACID OR SALT THEREOF FOR TREATING RETROVIRUS INFECTION” (priority 2006, published 2009)
Where two headings read alike, the source gives them in different places.

Legend:
HIV-1 clinical isolates [1] = tested on: HIV-1 clinical isolates
[2] = tested on: drug-resistant HIV-1 isolates; assay: Anti-HIV efficacy in fresh human PBMCs, drug-resistant HIV-1 isolates; details: for IC50: Human immunodeficiency virus 1, PBMC, in Homo sapiens
human PBMCs [3] = details: 7 days
HIV-1 clinical isolates [4] = assay: microbe, parasite or virus in culture; details: Human immunodeficiency virus 1, PBMC
[5] = tested on: recombinant HIV-1 clones (patient protease/RT sequences in HIV-1 NL4-3); assay: microbe, parasite or virus in culture; type: cell-based; details: one experiment
[6] = tested on: HIV-1 macrophage-tropic virus strains
HIV-2 CDC 310319 [7] = details: HIV-2 CDC 310319 in PBMCs
[8] = tested on: HIV-1 macrophage-tropic virus strains; assay: microbe, parasite or virus in culture; details: in Homo sapiens
human PBMCs [9] = assay: MTS staining for PBMC viability (cytotoxicity); details: read-out: TC50, PBMCs, MTS
[10] = MTS staining for PBMC viability (cytotoxicity); details: human
HIV-2 CDC 310319 [11] = assay: microbe, parasite or virus in culture; details: Human immunodeficiency virus 2, PBMC
[12] = MTS cytotoxicity in monocyte/macrophage cultures; type: cell-based; details: human, fresh adherent monocyte/macrophage cultures, HIV-infected, macrophages, MTS, read-out: TC50
Description: Anti-HIV Efficacy Evaluation in Fresh Human Monocyte/Macrophage. Monocytes/macrophages were allowed to adhere to the interior 60 wells of a 96 well flat bottomed plate for 2 to 18 hours at 37° C., 5% CO2. Following 6 to 14 days in culture, the monocyte/macrophage cultures were washed 3 times to remove any non-adherent cells and serially diluted test compounds were added followed by the addition of a pre-titered amount of HIV. Cultures were washed a final time by media removal 24 hours post infection, fresh compound added and the cultures continued for an additional six days. […] At assay termination, virus replication was measured by collecting cell-free supernatant samples which were analyzed for HIV p24 antigen content using a commercially available p24 ELISA assay (Coulter). […] MTS staining for PBMC viability to measure cytotoxicity. […] The mitochondrial enzymes of metabolically active cells metabolize MTS to yield a soluble formazan product. This allows the rapid quantitative analysis of cell viability and compound cytotoxicity. […] At termination of the assay, 20 μL of MTS reagent was added per well. The microtiter plates were then incubated 4-6 hrs at 37° C. The incubation intervals were chosen based on empirically determined times for optimal dye reduction. […] Data analysis.

## COc1cc2c(cc1Cc1cccc(Cl)c1F)c(=O)c(C(=O)O)cn2[C@H](CO)C(C)C [Compound I, 6-(3-chloro-2-fluorobenzyl)-1-[(2S)-1-hydroxy-3-methylbutan-2-yl]-7-methoxy-4-oxo-1,4-dihydroquinoline-3-carboxylic acid]
HIV-1 clinical isolates [1]; HIV-1 96USHIPS7 in PBMCs
  TI (TC50/IC50): >384.6
HIV-1 clinical isolates [1]; HIV-1 BFC01 in PBMCs
  TI (TC50/IC50): >85.5
HIV-1 clinical isolates [1]; HIV-1 BR/92/021 in PBMCs
  TI (TC50/IC50): >131.6
HIV-1 clinical isolates [1]; HIV-1 BR/92/025 in PBMCs
  TI (TC50/IC50): >1000.0
HIV-1 clinical isolates [1]; HIV-1 BR/93/017 in PBMCs
  TI (TC50/IC50): >555.6
HIV-1 clinical isolates [1]; HIV-1 BR/93/020 in PBMCs
  TI (TC50/IC50): >135.1
HIV-1 clinical isolates [1]; HIV-1 BR/93/022 in PBMCs
  TI (TC50/IC50): >88.5
HIV-1 clinical isolates [1]; HIV-1 CMU 02 in PBMCs
  TI (TC50/IC50): >79.4
HIV-1 clinical isolates [1]; HIV-1 JV 1083 in PBMCs
  TI (TC50/IC50): >285.7
HIV-1 clinical isolates [1]; HIV-1 RW/92/016 in PBMCs
  TI (TC50/IC50): >243.9
HIV-1 clinical isolates [1]; HIV-1 UG/92/046 in PBMCs
  TI (TC50/IC50): >200.0
[2]; HIV-1 52-52 in PBMCs
  TI (TC50/IC50): >588.2
[2]; HIV-1 144-44 in PBMCs
  TI (TC50/IC50): >138.89
[2]; HIV-1 1002-60 in PBMCs
  TI (TC50/IC50): >769.2
[2]; HIV-1 1064-52 in PBMCs
  TI (TC50/IC50): >158.7
[2]; HIV-1 MDR 769 in PBMCs
  TI (TC50/IC50): >555.6
[2]; HIV-1 MDR 807 in PBMCs
  TI (TC50/IC50): >88.5
[2]; HIV-1 MDR 1385 in PBMCs
  TI (TC50/IC50): >5000.0
[2]; HIV-1 MDR 3761 in PBMCs
  TI (TC50/IC50): >137.0
[2]; HIV-1 52-52 (protease-inhibitor resistant) in PBMCs
  IC50: 0.17 nM
[2]; against several viruses (e.g., MDR 1385, MDR 3761) in PBMCs
  IC50: < 1 nM
[2]; multi-drug-resistant HIV-1 MDR 769 in PBMCs
  IC50: 0.18 nM
[2]; multi-drug-resistant HIV-1 MDR 807 in PBMCs
  IC50: 1.13 nM
[2]; multi-drug-resistant HIV-1 MDR 1385 in PBMCs
  IC50: 0.02 nM
[2]; multi-drug-resistant HIV-1 MDR 3761 in PBMCs
  IC50: 0.73 nM
Human PBMCs [3]
  CC50: > 100 nM
HIV-1 clinical isolates [4]; HIV-1 96USHIPS7 (subtype /B, R5) in PBMCs
  IC50: 0.26 nM
HIV-1 clinical isolates [4]; HIV-1 BR/92/021 (subtype B/B, R5) in PBMCs
  IC50: 0.76 nM
HIV-1 clinical isolates [4]; HIV-1 BR/93/020 (subtype F/F, R5/X4) in PBMCs
  IC50: 0.74 nM
HIV-1 clinical isolates [4]; HIV-1 CMU 02 (subtype /EA, X4) in PBMCs
  IC50: 1.26 nM
HIV-1 clinical isolates [4]; HIV-1 JV 1083 (subtype /G, R5) in PBMCs
  IC50: 0.35 nM
HIV-1 clinical isolates [4]; HIV-1 RW/92/016 (subtype A/A, R5) in PBMCs
  IC50: 0.41 nM
HIV-1 clinical isolates [4]; HIV-1 UG/92/046 (subtype D/D, X4) in PBMCs
  IC50: 0.5 nM
[5]; Human immunodeficiency virus 1, NL43, 120 recombinant clones
  EC50: 1.06 nM
[5]; Human immunodeficiency virus 1, NL43, Reference clone (NL4-3), ten replicates
  EC50: 1.11 nM
[6]; HIV-1 ADA in macrophages
  TI (TC50/IC50): >7142.9
[6]; HIV-1 Ba-L in macrophages
  TI (TC50/IC50): >746.3
[6]; HIV-1 JR-CSF in macrophages
  TI (TC50/IC50): >322.6
HIV-2 CDC 310319 [7]
  TI (TC50/IC50): >188.7
[8]; Human immunodeficiency virus 1, BAL, Macrophage, HIV-1 Ba-L in macrophages
  IC50: 0.67 nM
[8]; Human immunodeficiency virus 1, Macrophage, HIV-1 ADA in macrophages
  IC50: 0.07 nM
[8]; Human immunodeficiency virus 1, Macrophage, HIV-1 JR-CSF in macrophages
  IC50: 0.31 nM
Human PBMCs [9]; 52-52 assay
  CC50: > 100 nM
Human PBMCs [9]; 96USHIPS7 assay
  CC50: > 100 nM
Human PBMCs [9]; 144-44 assay
  CC50: > 100 nM
Human PBMCs [9]; 1002-60 assay
  CC50: > 100 nM
Human PBMCs [9]; 1064-52 assay
  CC50: > 100 nM
Human PBMCs [9]; BFC01 assay
  CC50: > 100 nM
Human PBMCs [9]; BR/92/025 assay
  CC50: > 100 nM
Human PBMCs [9]; BR/93/017 assay
  CC50: > 100 nM
Human PBMCs [9]; BR/93/020 assay
  CC50: > 100 nM
Human PBMCs [9]; BR/93/022 assay
  CC50: > 100 nM
Human PBMCs [9]; CMU 02 assay
  CC50: > 100 nM
Human PBMCs [9]; HIV-2 CDC 310319 assay
  CC50: > 100 nM
Human PBMCs [9]; JV 1083 assay
  CC50: > 100 nM
Human PBMCs [9]; RW/92/016 assay
  CC50: > 100 nM
Human PBMCs [9]; UG/92/046 assay
  CC50: > 100 nM
[10]
  CC50 at 7 days: > 100 nM
HIV-2 CDC 310319 [11]
  IC50: 0.53 nM
[12]; ADA assay
  CC50 at 7 days: > 500 nM
[12]; Ba-L assay
  CC50 at 7 days: > 500 nM
[12]; JR-CSF assay
  CC50 at 7 days: > 100 nM
